Measurements as given in article PMC6337391 (Molecules, 2019).
pIC50: −log10 of the molar value.

Columns and labels:
[1] = ABTS•+ decolorization assay
Protocol: The decolorization assay is used to evaluate the antioxidant activity. The ABTS^•+ cationic radical is derived from the direct oxidation of ABTS by potassium persulfate. No involvement of an intermediary radical is observed. The addition of electron-donating antioxidants reduce ABTS^•+.
Stock solutions of the tested compounds in DMSO (10 mM) were diluted. […] aliquots of each sample were added into the ABTS·^+ solution and the absorbance was recorded at room temperature. Trolox was used as a standard.

[2] = system: L929 mouse fibroblasts cells; experiment: Cytotoxicity, propidium iodide fluorescence method; assay type: cell-based; conditions: 24-h incubation
Protocol: The cytotoxicity of the synthesized derivatives against L929 mouse fibroblasts cells was determined using the propidium iodide (PI) fluorescence method in the presence of different concentrations (1–100 μM) of these compounds. The results are presented in Table 4 in the form of the % cell survival values as PI% for the examined compounds. […] Chalcones c7, c8, c11, and c12 follow.
L929 mouse fibroblasts cells were cultured in EMEM supplemented with 10% horse serum, 2 mM L-glutamine, 1 mM sodium pyruvate, 0.1 mM nonessential amino acids, 1.5 g/L sodium bicarbonate, and 100 μg/mL penicillin–streptomycin at 37 °C in a humidified atmosphere with 5% CO2. L929 cells were plated into 24-well plates at a density […] and allowed to attach and grow for 24 h. The supernatant in each well then replaced with medium containing various concentrations (1, 10, 20, 50 and 100 μM) of compounds a5–12, c5–12, di, and dii–dvi, which presented the more interesting results in the in vitro experiments. After 24-h incubation, the supernatant was removed and the cells were washed with PBS. The cells were detached with 0.25% trypsin, transferred to FACS tubes, and then centrifuged (1600 rpm for 5 min) and the pellet washed with PBS. After washing, the cells in the pellet were incubated with 5 μL propidium iodide (PI) solution (1 mg/mL) for 1 min. The PI fluorescence (cell death) was determined with flow cytometry, FACS Calibur, Coulter Epics XL-MCL (Beckman, Inc., Mount Holly, NJ, USA). The analysis of flow cytometry data was performed with the WinMDI analysis program (Table 4).

[3] = target: T1, soybean lipoxygenase (Glycine max, UniProt P08170); experiment: biochemical; assay type: biochemical; conditions: soybean LOX
T1 sequence (P08170 1-839): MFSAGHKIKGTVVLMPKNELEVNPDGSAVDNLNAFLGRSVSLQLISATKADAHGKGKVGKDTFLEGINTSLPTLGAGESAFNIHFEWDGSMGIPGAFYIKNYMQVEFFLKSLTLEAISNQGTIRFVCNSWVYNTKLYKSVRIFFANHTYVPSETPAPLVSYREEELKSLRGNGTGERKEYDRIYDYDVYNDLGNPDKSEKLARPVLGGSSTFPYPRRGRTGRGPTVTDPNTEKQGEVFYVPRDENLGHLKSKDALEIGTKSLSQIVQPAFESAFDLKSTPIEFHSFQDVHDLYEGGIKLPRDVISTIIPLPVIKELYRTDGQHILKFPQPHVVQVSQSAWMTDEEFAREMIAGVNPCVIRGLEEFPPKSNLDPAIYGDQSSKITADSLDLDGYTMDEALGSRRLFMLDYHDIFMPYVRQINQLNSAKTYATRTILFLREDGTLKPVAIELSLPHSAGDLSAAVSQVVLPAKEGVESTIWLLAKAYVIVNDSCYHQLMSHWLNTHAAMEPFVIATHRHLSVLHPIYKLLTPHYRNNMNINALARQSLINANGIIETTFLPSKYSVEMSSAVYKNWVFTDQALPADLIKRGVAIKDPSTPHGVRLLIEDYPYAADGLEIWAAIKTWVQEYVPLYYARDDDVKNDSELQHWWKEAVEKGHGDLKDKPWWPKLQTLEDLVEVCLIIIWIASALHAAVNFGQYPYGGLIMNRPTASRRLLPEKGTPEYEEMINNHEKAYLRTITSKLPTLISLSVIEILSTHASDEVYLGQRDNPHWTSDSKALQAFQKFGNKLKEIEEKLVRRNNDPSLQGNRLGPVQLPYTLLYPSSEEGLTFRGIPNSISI
Source text: In our experiments we used soybean lipoxygenase. Designing agents to modulate activities of the variety of so closely homologous enzymes, such as different LOXs, require an intimate knowledge of their 3D structures, as well as information about metabolism of the potential xenobiotics. […] Due to lack of sufficiently-purified human enzymes most of the research has been done on soybean LOX [52, 53]. Although this enzyme is not identical to the mammalian one, it seems that there is a sufficient qualitative correlation between values for enzyme inhibition with the two enzymes.
In vitro study was evaluated as reported previously. The tested compounds as stock solutions were dissolved in DMSO. Ten microliters (10 μL) were incubated at room temperature with sodium linoleate ([…]) and 0.2 mL of enzyme solution (1/9 × 10^−4 w/v in saline) in buffer pH 9 (tris) at room temperature (final volume 1 mL). […] Several concentrations were used for the determination of IC50 values.

[4] = Reducing activity with the stable radical DPPH
Protocol: The chalcones were studied for the antioxidant activity (reducing activity RA%) by the use of the stable free radical 2,2-diphenyl-1-picrylhydrazyl radical (DPPH) at concentrations 0.05 mM after 20 and 60 min (Table 2). In this procedure, the dominant chemical reaction involved is the reduction of the DPPH radical by single electron transfer from the antioxidant. […] For the sake of comparison, we measured the RA% values for the intermediate double ethers d which were included in the Table 2.
To a solution of DPPH (final concentration 0.05 mM) in absolute ethanol an equal volume of the compounds solution in DMSO (stock solution 10 mM) dissolved in ethanol was added. Absolute ethanol was used as a control. The concentrations of the solutions of the compounds were 0.05 and 0.1 mM. The absorbance was recorded at 517 nm at room temperature after 20 and 60 min [29] (Table 2).

[5] = Inhibition of linoleic acid lipid peroxidation (AAPH)
Source text: The water soluble 2,2′-azobis(2-amidinopropane) hydrochloride (AAPH) generates in vitro free radicals through spontaneous thermal decomposition. […] Overall, chalcones a, b, and c present anti-lipid peroxidation activity. […] The inhibiting activities for the rest b chalcones ranged from 15–44%. The intermediate ethers are moderate inhibitors. […] This might be correlated with the presence of the double C=C–COCH3 group. […] Both have a long ether chain in their structure.
In an aqueous solution spectrophotometrically at 234 nm the production of conjugated diene hydro peroxide by oxidation of sodium linoleate was monitored and recorded according to our previous published experimental conditions, using 10 µL of the 16 mM sodium linoleate solution added to the UV cuvette containing 930 μL of 0.05 M phosphate buffer, pH 7.4 pre-thermostated at 37 °C, under air by the addition of 50 μL of 40 mM AAPH solution, which was used as a free radical initiator. Ten microliters (10 μL) of the appropriate solutions of the tested compounds were added in the mixture, whereas same level of DMSO was used as a blank for the measurement of lipid oxidation. The rate of oxidation at 37 °C was monitored by recording the increase in absorption at 234 nm caused by conjugated diene hydro peroxides.

[6] = Lipophilicity as RM values by RP-TLC; assay type: physicochemical; set-up: key: RM = log[(1/Rf) − 1]; conditions: methanol/water 70/30, SD < 10%
Source text: It is well-documented and discussed in the literature that lipophilicity is a very significant physicochemical property which may critically affect distribution, bioavailability, metabolic activity and elimination, all the useful characteristics for the kinetics of biologically active compounds. Thus, we attempted to determine experimentally the lipophilicity of the synthesized compounds from the RPTLC method as RM values. The method is considered to be a reliable, fast and convenient method for expressing lipophilicity. Moreover, many calculated methods were used in order to predict the logP value.
Reversed phase TLC (RP-TLC) was performed on silica gel plates impregnated with 5% (v/v) liquid paraffin in light petroleum ether. The mobile phase was a methanol/water mixture (70/30, v/v). The plates were developed in closed chromatography tanks saturated with the mobile phase at 24 °C. Spots were detected under UV light. Five individual measurements of Rf values were recorded and used for the determination of RM using the equation RM = log [(1/Rf) − 1]. (Table 3).

SMILES	ABTS•+ Inhb. % @ 100 μM [1]	1 μM Average (% pi) ± σ [2]	10 μM Average (% pi) ± σ [2]	20 μM Average (% pi) ± σ [2]	50 μM Average (% pi) ± σ [2]	100 μM Average (% pi) ± σ [2]	% LOX Inhb. @ 100 μM [3]	pIC50 ([3]; read-out: LOX IC50)	RA% 100 μM 20 min [4]	RA% 100 μM 60 min [4]	AAPH% @ 100 μM (anti-lipid peroxidation) [5]	RM [6]
O=C(/C=C/c1ccco1)c1ccc(OCCCOc2ccc(C(=O)/C=C/c3ccco3)cc2)cc1 [c10, (2E,2′E)-1,1′-((propane-1,3-diylbis(oxy))bis(4,1-phenylene))bis(3-(furan-2-yl)prop-2-en-1-one)]	11%	18.10 ± 11.82%	13.48 ± 10.36%	25.93 ± 9.73%	32.11 ± 9.38%	32.11 ± 9.38%	57%	4.07	No	no	77%	0.7
O=C(/C=C/C=C/c1ccccc1)c1ccc(O)cc1 [a7, (2E,4E)-1-(4-hydroxyphenyl)-5-phenylpenta-2,4-dien-1-one]	12%	6.85 ± 3.12%	9.27 ± 1.9%	9.24 ± 6.49%	60.95 ± 0.01%	60.95 ± 0.01%	4%		19%	6%	31%	−0.64
O=C(/C=C/c1cccs1)c1ccc(OCCCOc2ccc(C(=O)/C=C/c3cccs3)cc2)cc1 [c5, (2E,2′E)-1,1′-((propane-1,3-diylbis-(oxy))bis-(4,1-phenylene)) bis-(3-(thiophen-2-yl)prop-2-en-1-one)]	No	0.32 ± 0.45%	0.97 ± 0.2%	3.02 ± 1.36%	7.26 ± 0.3%	7.26 ± 0.3%	32%		No	no	46%	0.43
O=C(/C=C/c1ccco1)c1ccc(O)cc1 [a10, (E)-3-(furan-2-yl)-1-(4-hydroxyphenyl) prop-2-en-1-one]	2%	3.03 ± 0.88%	2.25 ± 0.38%	2.39 ± 1.08%	17.15 ± 0.32%	17.15 ± 0.32%	23%		23%	10%	24%	−0.06
O=C(/C=C/C=C/c1ccc([N+](=O)[O-])cc1)c1ccc(O)cc1 [a11, (2E,4E)-1-(4-hydroxyphenyl)-5-(4-nitrophenyl) penta-2,4-dien-1-one]	14%		6.26 ± 3%	18.81 ± 2.57%	67.84 ± 6.45%	67.84 ± 6.45%	36%		7%	3%	55%	−1.09
CC(/C=C/C(=O)c1ccc(O)cc1)=C\c1ccccc1 [a8, (2E,4E)-1-(4-hydroxyphenyl)-4-methyl-5-phenylpenta-2,4-dien-1-one]	No	1.39 ± 0.1%	2.95 ± 1.23%	1.84 ± 2.05%	8.15 ± 0.34%	8.15 ± 0.34%	14%		6%	2%	32%	−0.68
Cc1ccc(/C=C/C(=O)c2ccc(O)cc2)o1 [a12, (E)-1-(4-hydroxyphenyl)-3-(5-methylfuran-2-yl) prop-2-en-1-one]	6%	0.88 ± 0.31%	3.25± 2.11%	8.12 ± 0.32%	63.54 ± 6.16%	63.54 ± 6.16%	2%		24%	9%	45%	−0.81
